Results: the kinase profiling compilation of Christmann-Franck et al. (2016)

Assays:
Assay in all cases: radiometric filter-binding kinase assay, Kinase HotSpot
Details in all cases: compound 0.5 µM; ATP 10 µM
ACVR1 (human) = ACVR1 (human) (UniProt Q04771)
CAMK2D (human) = CAMK2D (human) (UniProt Q13557)
CAMK2G (human) = CAMK2G (human) (UniProt Q13555)
CDK3 CCNE1 (human) = CDK3 CCNE1 (human) (UniProt Q00526+P24864)
CSNK1G2 (human) = CSNK1G2 (human) (UniProt P78368)
DAPK2 (human) = DAPK2 (human) (UniProt Q9UIK4)
DCLK2 (human) = DCLK2 (human) (UniProt Q8N568)
HIPK4 (human) = HIPK4 (human) (UniProt Q8NE63)
ITK (human) = ITK (human) (UniProt Q08881)
MAP3K11 (human) = MAP3K11 (human) (UniProt Q16584)
MAPK12 (human) = MAPK12 (human) (UniProt P53778)
MARK3 (human) = MARK3 (human) (UniProt P27448)
MYO3B (human) = MYO3B (human) (UniProt Q8WXR4)
NEK1 (human) = NEK1 (human) (UniProt Q96PY6)
NEK2 (human) = NEK2 (human) (UniProt P51955)
NLK (human) = NLK (human) (UniProt Q9UBE8)
PASK (human) = PASK (human) (UniProt Q96RG2)
PRKD2 (human) = PRKD2 (human) (UniProt Q9BZL6)
RPS6KA1 KD1 KD2 (human) = RPS6KA1 KD1 KD2 (human) (UniProt Q15418)
SGK2 (human) = SGK2 (human) (UniProt Q9HBY8)
SRPK1 (human) = SRPK1 (human) (UniProt Q96SB4)
STK10 (human) = STK10 (human) (UniProt O94804)
STK38 (human) = STK38 (human) (UniProt Q15208)
TAOK1 (human) = TAOK1 (human) (UniProt Q7L7X3)
TAOK3 (human) = TAOK3 (human) (UniProt Q9H2K8)
TEC (human) = TEC (human) (UniProt P42680)
TGFBR2 (human) = TGFBR2 (human) (UniProt P37173)
TLK2 (human) = TLK2 (human) (UniProt Q86UE8)
ABL2 (human) = ABL2 (human) (UniProt P42684)
BRSK1 (human) = BRSK1 (human) (UniProt Q8TDC3)
CDK6 CCND3 (human) = CDK6 CCND3 (human) (UniProt P30281+Q00534)
EGFR (human) = EGFR (human) (UniProt P00533)
EPHA3 (human) = EPHA3 (human) (UniProt P29320)
EPHA5 (human) = EPHA5 (human) (UniProt P54756)
ERBB4 (human) = ERBB4 (human) (UniProt Q15303)
GSK3A (human) = GSK3A (human) (UniProt P49840)
KDR (human) = KDR (human) (UniProt P35968)
MAP4K4 (human) = MAP4K4 (human) (UniProt O95819)
MYLK2 (human) = MYLK2 (human) (UniProt Q9H1R3)
PAK4 (human) = PAK4 (human) (UniProt O96013)
PBK (human) = PBK (human) (UniProt Q96KB5)
PRKG2 (human) = PRKG2 (human) (UniProt Q13237)

Chain of DAPK2 (human) (Q9UIK4 whole entry, looked up): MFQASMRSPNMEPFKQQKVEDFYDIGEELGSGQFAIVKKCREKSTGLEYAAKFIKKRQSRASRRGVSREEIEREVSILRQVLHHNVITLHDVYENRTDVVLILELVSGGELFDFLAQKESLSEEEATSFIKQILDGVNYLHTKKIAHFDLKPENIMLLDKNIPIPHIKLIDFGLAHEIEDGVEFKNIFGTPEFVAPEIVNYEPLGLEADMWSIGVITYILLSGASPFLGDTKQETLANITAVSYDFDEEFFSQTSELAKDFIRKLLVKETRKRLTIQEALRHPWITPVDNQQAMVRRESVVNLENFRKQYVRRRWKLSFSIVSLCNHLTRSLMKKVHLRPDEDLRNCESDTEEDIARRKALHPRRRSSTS
Chain of PASK (human) (Q96RG2 whole entry, looked up): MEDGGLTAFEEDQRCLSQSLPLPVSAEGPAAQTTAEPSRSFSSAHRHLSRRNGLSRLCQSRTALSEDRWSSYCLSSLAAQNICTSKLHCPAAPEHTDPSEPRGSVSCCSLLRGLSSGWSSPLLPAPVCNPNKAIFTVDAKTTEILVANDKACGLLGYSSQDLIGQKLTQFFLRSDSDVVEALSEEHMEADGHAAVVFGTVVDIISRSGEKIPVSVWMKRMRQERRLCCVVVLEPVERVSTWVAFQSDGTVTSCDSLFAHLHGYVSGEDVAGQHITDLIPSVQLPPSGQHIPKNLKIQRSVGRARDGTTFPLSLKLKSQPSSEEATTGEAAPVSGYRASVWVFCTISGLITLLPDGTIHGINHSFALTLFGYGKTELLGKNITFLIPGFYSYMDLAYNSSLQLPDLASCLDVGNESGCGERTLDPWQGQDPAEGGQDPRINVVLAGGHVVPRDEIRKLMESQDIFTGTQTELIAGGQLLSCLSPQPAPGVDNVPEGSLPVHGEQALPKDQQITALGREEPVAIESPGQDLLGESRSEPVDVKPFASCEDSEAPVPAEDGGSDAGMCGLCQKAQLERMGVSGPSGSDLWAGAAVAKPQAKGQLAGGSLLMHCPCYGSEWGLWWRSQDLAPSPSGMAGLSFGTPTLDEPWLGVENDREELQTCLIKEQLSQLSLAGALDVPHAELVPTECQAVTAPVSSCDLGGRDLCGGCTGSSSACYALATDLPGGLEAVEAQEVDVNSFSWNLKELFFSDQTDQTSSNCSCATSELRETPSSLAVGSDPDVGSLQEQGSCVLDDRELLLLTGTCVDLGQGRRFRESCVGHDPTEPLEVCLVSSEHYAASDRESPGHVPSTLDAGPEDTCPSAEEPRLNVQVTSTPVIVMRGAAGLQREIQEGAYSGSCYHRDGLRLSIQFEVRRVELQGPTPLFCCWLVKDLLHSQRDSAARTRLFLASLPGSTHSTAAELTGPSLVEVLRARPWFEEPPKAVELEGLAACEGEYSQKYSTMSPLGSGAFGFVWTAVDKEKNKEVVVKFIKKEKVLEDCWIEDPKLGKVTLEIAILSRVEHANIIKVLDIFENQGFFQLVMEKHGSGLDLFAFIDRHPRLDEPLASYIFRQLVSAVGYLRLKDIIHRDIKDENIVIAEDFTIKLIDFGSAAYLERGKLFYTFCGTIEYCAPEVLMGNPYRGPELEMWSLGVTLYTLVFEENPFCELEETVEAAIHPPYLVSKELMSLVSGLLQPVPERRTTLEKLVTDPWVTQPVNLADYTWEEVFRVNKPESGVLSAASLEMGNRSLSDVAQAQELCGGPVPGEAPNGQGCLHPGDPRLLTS
Chain of RPS6KA1 KD1 KD2 (human) (Q15418 whole entry, looked up): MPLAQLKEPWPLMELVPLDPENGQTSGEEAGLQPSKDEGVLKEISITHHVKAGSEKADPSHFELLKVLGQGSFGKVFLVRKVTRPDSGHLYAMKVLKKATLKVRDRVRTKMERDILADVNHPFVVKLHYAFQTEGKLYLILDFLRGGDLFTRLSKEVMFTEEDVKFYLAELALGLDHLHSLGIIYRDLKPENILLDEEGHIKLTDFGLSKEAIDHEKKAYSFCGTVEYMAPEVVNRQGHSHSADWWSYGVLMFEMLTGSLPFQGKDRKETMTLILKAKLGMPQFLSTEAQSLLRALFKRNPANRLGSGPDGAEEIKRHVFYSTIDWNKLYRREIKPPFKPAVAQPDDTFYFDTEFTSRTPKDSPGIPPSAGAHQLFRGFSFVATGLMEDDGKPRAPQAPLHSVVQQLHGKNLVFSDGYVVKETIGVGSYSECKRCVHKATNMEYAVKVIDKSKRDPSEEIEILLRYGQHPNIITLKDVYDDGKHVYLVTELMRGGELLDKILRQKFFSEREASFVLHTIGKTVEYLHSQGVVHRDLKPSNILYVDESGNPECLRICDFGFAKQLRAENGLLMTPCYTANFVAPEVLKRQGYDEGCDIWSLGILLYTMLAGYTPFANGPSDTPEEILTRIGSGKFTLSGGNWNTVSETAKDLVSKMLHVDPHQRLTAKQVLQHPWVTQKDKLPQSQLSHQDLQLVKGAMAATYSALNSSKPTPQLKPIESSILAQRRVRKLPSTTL
Chain of CSNK1G2 (human) (P78368 whole entry, looked up): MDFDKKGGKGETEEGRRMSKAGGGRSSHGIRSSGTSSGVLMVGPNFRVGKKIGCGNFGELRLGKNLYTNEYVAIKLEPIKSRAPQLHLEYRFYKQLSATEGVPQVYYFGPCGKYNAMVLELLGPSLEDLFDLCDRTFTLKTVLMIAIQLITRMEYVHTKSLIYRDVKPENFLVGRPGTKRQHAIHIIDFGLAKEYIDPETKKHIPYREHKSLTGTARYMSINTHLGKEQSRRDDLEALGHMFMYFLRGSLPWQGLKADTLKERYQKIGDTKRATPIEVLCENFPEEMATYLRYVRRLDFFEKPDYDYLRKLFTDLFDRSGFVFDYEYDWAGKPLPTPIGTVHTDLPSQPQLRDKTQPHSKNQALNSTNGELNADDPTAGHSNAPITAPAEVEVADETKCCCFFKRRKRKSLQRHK
Chain of HIPK4 (human) (Q8NE63 whole entry, looked up): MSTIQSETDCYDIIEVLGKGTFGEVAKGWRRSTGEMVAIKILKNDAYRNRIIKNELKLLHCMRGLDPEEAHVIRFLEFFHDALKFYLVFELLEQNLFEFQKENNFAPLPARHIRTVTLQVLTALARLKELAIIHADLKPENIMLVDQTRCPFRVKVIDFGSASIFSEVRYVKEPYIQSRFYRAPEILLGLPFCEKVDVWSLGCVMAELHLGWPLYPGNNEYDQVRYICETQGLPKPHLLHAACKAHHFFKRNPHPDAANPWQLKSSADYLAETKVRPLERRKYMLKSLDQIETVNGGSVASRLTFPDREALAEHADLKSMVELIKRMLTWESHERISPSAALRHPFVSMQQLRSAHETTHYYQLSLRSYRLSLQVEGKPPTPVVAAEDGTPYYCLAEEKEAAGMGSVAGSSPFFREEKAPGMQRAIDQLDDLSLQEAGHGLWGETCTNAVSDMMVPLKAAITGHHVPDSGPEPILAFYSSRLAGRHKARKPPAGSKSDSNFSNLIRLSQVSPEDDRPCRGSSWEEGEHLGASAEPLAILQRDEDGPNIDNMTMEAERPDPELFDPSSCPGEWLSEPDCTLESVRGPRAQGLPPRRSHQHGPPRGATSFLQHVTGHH
Chain of ACVR1 (human) (Q04771 whole entry, looked up): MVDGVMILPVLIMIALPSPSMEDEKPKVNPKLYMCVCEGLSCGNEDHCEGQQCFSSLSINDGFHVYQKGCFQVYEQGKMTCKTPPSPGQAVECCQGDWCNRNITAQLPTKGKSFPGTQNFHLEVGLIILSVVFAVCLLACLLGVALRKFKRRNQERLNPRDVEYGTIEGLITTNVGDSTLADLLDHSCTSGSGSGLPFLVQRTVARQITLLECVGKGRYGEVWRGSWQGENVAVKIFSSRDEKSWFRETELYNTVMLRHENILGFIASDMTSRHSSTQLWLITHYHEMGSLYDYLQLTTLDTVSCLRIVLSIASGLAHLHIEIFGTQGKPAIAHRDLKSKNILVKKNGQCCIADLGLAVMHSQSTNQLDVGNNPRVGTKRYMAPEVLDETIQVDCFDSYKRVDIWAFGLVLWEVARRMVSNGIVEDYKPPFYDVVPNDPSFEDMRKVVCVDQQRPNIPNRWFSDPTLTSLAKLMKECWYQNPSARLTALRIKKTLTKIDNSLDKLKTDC
Chain of PRKD2 (human) (Q9BZL6 whole entry, looked up): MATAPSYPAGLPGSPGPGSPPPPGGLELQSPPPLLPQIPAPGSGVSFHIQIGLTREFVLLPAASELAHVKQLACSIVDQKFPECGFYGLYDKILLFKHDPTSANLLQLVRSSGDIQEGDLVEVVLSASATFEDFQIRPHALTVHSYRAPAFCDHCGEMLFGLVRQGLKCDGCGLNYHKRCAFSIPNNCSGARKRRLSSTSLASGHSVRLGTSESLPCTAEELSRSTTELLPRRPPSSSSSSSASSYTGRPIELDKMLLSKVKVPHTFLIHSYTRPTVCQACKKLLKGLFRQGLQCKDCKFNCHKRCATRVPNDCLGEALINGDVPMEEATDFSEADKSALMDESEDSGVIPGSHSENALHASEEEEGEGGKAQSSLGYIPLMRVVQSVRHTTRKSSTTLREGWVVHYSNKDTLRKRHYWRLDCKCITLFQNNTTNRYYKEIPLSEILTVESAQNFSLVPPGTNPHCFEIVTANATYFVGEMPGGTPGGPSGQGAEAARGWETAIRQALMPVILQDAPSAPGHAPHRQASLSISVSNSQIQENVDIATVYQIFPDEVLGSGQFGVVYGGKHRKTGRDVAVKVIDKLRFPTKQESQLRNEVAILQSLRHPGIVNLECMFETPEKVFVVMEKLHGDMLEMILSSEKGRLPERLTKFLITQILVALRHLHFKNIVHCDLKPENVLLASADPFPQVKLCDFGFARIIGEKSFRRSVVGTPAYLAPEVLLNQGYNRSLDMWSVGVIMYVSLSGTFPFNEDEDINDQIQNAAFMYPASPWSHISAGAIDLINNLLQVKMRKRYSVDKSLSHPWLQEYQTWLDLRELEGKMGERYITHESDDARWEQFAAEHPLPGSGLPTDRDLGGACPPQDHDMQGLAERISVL

SMILES: CO[C@@H]1[C@H](N(C)C(=O)c2ccccc2)C[C@H]2O[C@]1(C)n1c3ccccc3c3c4c(c5c6ccccc6n2c5c31)C(=O)NC4
- residual activity (ACVR1 (human)): 95.5%
- residual activity (CAMK2D (human)): 17.3%
- residual activity (CAMK2G (human)): 43.9%
- residual activity (CDK3 CCNE1 (human)): 81.9%
- residual activity (CSNK1G2 (human)): 98.3%
- residual activity (DAPK2 (human)): 105%
- residual activity (DCLK2 (human)): 101%
- residual activity (HIPK4 (human)): 90.5%
- residual activity (ITK (human)): 70.6%
- residual activity (MAP3K11 (human)): 1.38%
- residual activity (MAPK12 (human)): 95.8%
- residual activity (MARK3 (human)): 4.76%
- residual activity (MYO3B (human)): 53.7%
- residual activity (NEK1 (human)): 66.2%
- residual activity (NEK2 (human)): 101%
- residual activity (NLK (human)): 96.9%
- residual activity (PASK (human)): 90.9%
- residual activity (PRKD2 (human)): 62.9%
- residual activity (RPS6KA1 KD1 KD2 (human)): 0.432%
- residual activity (SGK2 (human)): 99%
- residual activity (SRPK1 (human)): 97.1%
- residual activity (STK10 (human)): 19.3%
- residual activity (STK38 (human)): 83.8%
- residual activity (TAOK1 (human)): 60.8%
- residual activity (TAOK3 (human)): 38.1%
- residual activity (TEC (human)): 106%
- residual activity (TGFBR2 (human)): 99.1%
- residual activity (TLK2 (human)): 75%

SMILES: COc1ccc2c(c1)/C(=C/c1cnc[nH]1)C(O)=N2
- residual activity (ABL2 (human)): 90.6%
- residual activity (ACVR1 (human)): 105%
- residual activity (BRSK1 (human)): 47.1%
- residual activity (CAMK2D (human)): 78.8%
- residual activity (CAMK2G (human)): 94.6%
- residual activity (CDK3 CCNE1 (human)): 35.2%
- residual activity (CDK6 CCND3 (human)): 28%
- residual activity (CSNK1G2 (human)): 95.3%
- residual activity (DAPK2 (human)): 97.3%
- residual activity (DCLK2 (human)): 96%
- residual activity (EGFR (human)): 99.4%
- residual activity (EPHA3 (human)): 93.3%
- residual activity (EPHA5 (human)): 86.2%
- residual activity (ERBB4 (human)): 106%
- residual activity (GSK3A (human)): 26.2%
- residual activity (HIPK4 (human)): 90.8%
- residual activity (ITK (human)): 94%
- residual activity (KDR (human)): 78.7%
- residual activity (MAP3K11 (human)): 61.6%
- residual activity (MAP4K4 (human)): 19.4%
- residual activity (MAPK12 (human)): 95.5%
- residual activity (MARK3 (human)): 56.2%
- residual activity (MYLK2 (human)): 21%
- residual activity (MYO3B (human)): 88%
- residual activity (NEK1 (human)): 84.4%
- residual activity (NLK (human)): 69.7%
- residual activity (PAK4 (human)): 100%
- residual activity (PASK (human)): 93.4%
- residual activity (PBK (human)): 124%
- residual activity (PRKD2 (human)): 60.2%
- residual activity (PRKG2 (human)): 99.7%
- residual activity (RPS6KA1 KD1 KD2 (human)): 69.6%
- residual activity (SGK2 (human)): 71.4%
- residual activity (SRPK1 (human)): 98%
- residual activity (STK10 (human)): 67%
- residual activity (STK38 (human)): 86.2%
- residual activity (TAOK1 (human)): 82.3%
- residual activity (TAOK3 (human)): 44%
- residual activity (TEC (human)): 91.6%
- residual activity (TGFBR2 (human)): 107%

SMILES: CC(C)(C)c1cc(C=C(C#N)C#N)cc(Br)c1O
- residual activity (ABL2 (human)): 57.1%
- residual activity (ACVR1 (human)): 102%
- residual activity (BRSK1 (human)): 94%
- residual activity (CAMK2D (human)): 96%
- residual activity (CAMK2G (human)): 104%
- residual activity (CDK3 CCNE1 (human)): 98.9%
- residual activity (CDK6 CCND3 (human)): 89.3%
- residual activity (CSNK1G2 (human)): 100%
- residual activity (DAPK2 (human)): 108%
- residual activity (DCLK2 (human)): 109%
- residual activity (EGFR (human)): 106%
- residual activity (EPHA3 (human)): 102%
- residual activity (EPHA5 (human)): 106%
- residual activity (ERBB4 (human)): 94%
- residual activity (GSK3A (human)): 104%
- residual activity (HIPK4 (human)): 103%
- residual activity (ITK (human)): 98.4%
- residual activity (KDR (human)): 97.8%
- residual activity (MAP3K11 (human)): 97.4%
- residual activity (MAP4K4 (human)): 96.2%
- residual activity (MAPK12 (human)): 102%
- residual activity (MARK3 (human)): 105%
- residual activity (MYLK2 (human)): 99.3%
- residual activity (NEK1 (human)): 97.7%
- residual activity (NEK2 (human)): 96%
- residual activity (NLK (human)): 93.6%
- residual activity (PAK4 (human)): 124%
- residual activity (PASK (human)): 96.7%
- residual activity (PBK (human)): 102%
- residual activity (PRKD2 (human)): 108%
- residual activity (PRKG2 (human)): 87.6%
- residual activity (RPS6KA1 KD1 KD2 (human)): 104%
- residual activity (SGK2 (human)): 120%
- residual activity (SRPK1 (human)): 101%
- residual activity (STK10 (human)): 95.4%
- residual activity (TAOK1 (human)): 97.9%
- residual activity (TAOK3 (human)): 122%
- residual activity (TEC (human)): 171%
- residual activity (TGFBR2 (human)): 93.8%
